The values below come from paper PMC12560828, “Chemical structure drives developmental toxicity of alkyl-substituted naphthalenes in zebrafish” (Environment international, 2025).

In series [1] the test system is early life stage zebrafish (Danio rerio) embryos. Put plainly: Developmental toxicity morphology screen, sealed rotating vial exposure. Type of series: in vivo. On the set-up: bmd, MO24 / bmd, MORT / bmd, ANY_ / bmd, AXIS / bmd, CRAN / bmd, EDEM / bmd, LTRK / bmd, MUSC / bmdL, ANY_ / bmdU, ANY_ / bmdL, AXIS / bmdU, AXIS / bmdL, CRAN / bmdU, CRAN / bmdL, EDEM / bmdU, EDEM / bmdL, LTRK / bmdU, LTRK / bmdL, MO24 / bmdU, MO24 / bmdL, MORT / bmdU, MORT: unit not given here. As to the method:
(§1) When embryos were 6 hpf they were bleached in groups of 1000 or less to limit bacterial growth in sealed vials. Embryos were placed in a strainer for transfer between solutions in 500 mL containers. […] Pools of eight embryos were placed into 2 mL clear glass screw cap exposure vials with polyvinyl-faced pulp liner (Avantar Radnor, PA, United States) using a glass Pasteur pipette. Excess EM was removed, and 2 mL of fresh EM was immediately added. A total of 10 uL of 200x working stock (in DMSO) was added to each vial, then immediately capped and inverted three times to mix. […] Vials were loaded into a custom 3D printed vial holder for slow end-over-end rotation in a dark 28 °C incubator overnight. […] At 24 hpf, embryos were removed from exposure vials and singulated into 96-well plates loaded with 100 μL chemical-free EM. Each exposure vial group was maintained in plate columns. After loading into 96-well plates, embryos were assessed for 24-hour mortality. For the remainder of the exposure, plates were kept stationary at 28 °C in the dark, until 120 hpf when morphology screening and the larval photo motor response (LPR) assay were conducted, section 2.3.2 and section 2.3.3, respectively.
Each treatment group was replicated over four vials, resulting in 32 embryos per treatment, split over two replicate 96-well plates per chemical. […] All reported concentrations were nominal water concentrations and are included in SI-T4.
At 24 hpf embryos were assessed for mortality (MO24). At 120 hpf embryos were assessed for abnormality in […] morphological endpoints: mortality (MORT), edemas (EDEM), bent axis (AXIS), touch response (TCHR), craniofacial (CRAN), muscular/cardiovascular (MUSC), lower trunk (LRTK), brain (BRAN), skin (SKIN), and notochord malformations (NC). Morphological assessments were made by a team of three to four individuals. The team was blinded to the identity, plate layout, and concentrations of the chemicals, thereby minimizing bias in morphological screening assessment. To ensure the assessments were consistent, concentration–response reproducibility of a parathion ethyl quality control plate was performed along with each experimental exposure set up. Details of all measured endpoints can be found at Developmental toxicity zebrafish phenotype atlas. […] Each endpoint was scored as a binary presence/absence and scores were compiled into an “Any effect” endpoint, the presence of abnormality in any individual endpoint.
The Any effect percent was used to calculate the BMC50, 50 % change relative to the background for each endpoint and chemical. All values were reported as the nominal exposure concentration.

For series [2], the system named is zebrafish larvae, 120 hpf. Put plainly: Larval photomotor response (LPR) assay after vial exposure. Type of series: in vivo, Danio rerio. Particulars: for fold_change: LPR. On the procedure: as §1
Each treatment group was replicated over four vials, resulting in 32 embryos per treatment, split over two replicate 96-well plates per chemical. […] Vial groups of plated larvae were tracked to assess the impact of the vial on the results. All reported concentrations were nominal water concentrations and are included in SI-T4.
The LPR assay was conducted at 120 hpf. […] Larval movement was tracked throughout minutes 6–24. Animals dead or morphologically abnormal were excluded from the analysis, and if more than 30 % of the wells in a treatment group were excluded, the treatment was removed.
Movement values were binned into 6s intervals, log normalized and used to calculate area under the curve (AUC). AUC values from the first cycle after calibration were used to calculate the LEL for each period (light and dark).

The subject of series [3] is zebrafish embryos, gene expression at 48 hpf. As to the kind of experiment: Targeted transcriptomics (TempO-Seq S1500+ zebrafish panel), differential expression. Format: in vivo, Danio rerio. Particulars: 20 μM, result in words. As to the method: Targeted transcriptomics were performed using the Biospyder™ TempO-Seq™ 96-well plate platform. This platform used detector oligos for a gene set of 3112 probes selected through data driven approaches and expert curation ([Balik-Meisner et al., 2019]). The targeted transcriptomics approach was selected to maximize the number of chemicals that could be included in the analysis while managing cost and data analysis requirements. Targeted transcriptomics were limited to 96 samples, three chemicals without morphological effects were excluded from the analysis to ensure n = 4 per chemical and n = 6 controls, excluded chemicals are indicated in SI-T3.
A single exposure concentration of 20 μM was chosen as the maximum possible concentration to elicit a biological response that also ensured enough viable animals for RNA collection for every chemical. The same concentration per chemical was chosen as opposed to a phenotypically anchored concentration due to variability in 48 hpf survival across chemicals at the same 120 hpf percent effect and to allow for a direct comparison of chemical potency and transcriptomic response. 48 hpf was chosen to ensure the measurement of transcriptomic responses prior to the emergence of observable phenotypic effects. This timepoint has been used extensively and enhanced the ability to compare our results across datasets. Exposure was conducted over two days, chemicals were split into day groups by numerical order of randomly generated internal labels, 11 chemicals and control each day, n = 48 embryos across six vials per treatment. Exposure was conducted as previously described in section 2.3. At 48 hpf embryos were collected for RNA extraction. Embryos from two exposure vials were kept for morphological effect assessments which were as expected based on screening results. From the remaining wells, six phenotypically normal embryos were collected and pooled in their vial groups into 1.5 mL Eppendorf tubes, placed on ice (~30 sec), excess medium was removed, placed back on ice (~30 sec), and 200 μL RNA shield was added. […] of n = 6 pooled embryos were collected from each treatment.
RNA was extracted from exposure groups on day one and day two. 100 μL of lysis buffer was added to each tube containing pooled embryo samples and 200 μL of RNA shield, the full contents of the tube were then transferred to the homogenization plate (2 mL deep 96-well plate pre-filled with 400 μL 1 mm zirconium beads and 500 μL of lysis buffer). The plate was homogenized for 1.5 min using the Mini-BeadBeater 96 (BioSpec Products, Bartlesville, OK, United States) and centrifuged for five min at 3000 rcf. 550 μL of the supernatant was distributed over two plates, each pre-filled with 275 μL of ethanol. RNA extraction was performed using the KingFisher Apex System (ThermoFisher Scientific, Waltham, MA, United States) and Quick-RNA Magbead kit (Zymo Research Corporation, Irvine, CA, Untied States). Briefly, this automated process uses Mag beads to collect RNA from the sample, after a series of washes and treatment with DNase the RNA is eluted in 50 μL of ultra-pure water. RNA quality was assessed using the 4150 TapeStation System (Agilent, Santa Clara, CA, United States). All samples used had RNA integrity number (RIN) scores >9.8. RNA concentration was determined using Quant-iT RNA Reagent and assay kit and Varioskan ALF multi-mode plate reader (ThermoFisher Scientific, Waltham, MA, United States) in duplicate, samples with high variability (coefficient of variance (CV) > 10) between reads were repeated in triplicate. The average of the quantification reads was used for RNA concentration normalization. […] All 94 samples were normalized using ultra-pure water to the lowest concentration sample − 14.9 ng/μL. […]

As for `Cc1ccc(C)c2c(C)cccc12` [1,4,5-trimethylnaphthalene], the “BMC50 MO24 (mortality at 24 hpf)” value in series [1] (Fig. 2, nominal concentration) came out at 27.7 µM. In addition, the “BMC50 MORT (mortality at 120 hpf)” value in series [1] (Fig. 2, nominal concentration) is 23.5 µM. In series [1] (Fig. 2 heatmap, nominal concentration, exposure 6-24 hpf in vials, summary of all endpoints), the “BMC50 Any effect” value came out at 19.7 µM. Also, the “any effect BMD50” value in series [1] (SI-T5) stood at 19.74 µM. Besides, the “bmd, MO24” value in series [1] (benchmark dose, endpoint MO24) worked out at 27.7283. Moreover, the “bmd, MORT” value in series [1] (benchmark dose, endpoint MORT) amounted to 23.5002. Also, the “bmd, ANY_” value in series [1] (benchmark dose, morphology endpoint ANY_ (any effect)) amounted to 19.7402. In addition, the LPR behavioral effect entry in series [2] (120 hpf, light/dark periods, result in words) is reported as “hyperactivity during the light period”. For the same molecule, the fold_change is given as 0.1634 in series [2] (period dark, round 1, conc 3.125); 0.08749 in series [2] (period dark, round 1, conc 6.25); -0.2344 in series [2] (period dark, round 1, conc 12.5); 0.03668 in series [2] (period dark, round 2, conc 12.8); -0.1932 in series [2] (period dark, round 2, conc 16); 0.4872 in series [2] (period dark, round 2, conc 20). The fold_change in series [2] (period light, round 1, conc 3.125) is reported as -0.0344; in series [2] (period light, round 1, conc 6.25), 0.04487; in series [2] (period light, round 1, conc 12.5), 0.5316; in series [2] (period light, round 2, conc 12.8) it was 0.4664; in series [2] (period light, round 2, conc 16) it was -0.1141; in series [2] (period light, round 2, conc 20), 1.443. The nt5dc2 expression entry in series [3] was “decreased expression”.
